Measurements reported in publication PMC9324074, “Novel Insights on Human Carbonic Anhydrase Inhibitors Based on Coumalic Acid: Design, Synthesis, Molecular Modeling Investigation, and Biological Studies” (International Journal of Molecular Sciences, 2022).
Where two headings read alike, the source gives them in different places.

How the values were obtained:
Test in all cases: stopped-flow CO2 hydrase assay
Assay type in all cases: biochemical
[1] = target: T1, hCA I (Homo sapiens, UniProt P00915)
T1 construct: gene CA1; recombinant, obtained in house
Description: stopped-flow CO2 hydrase assay on hCA I

[2] = target: T2, hCA IX (Homo sapiens, UniProt Q16790)
T2 construct: gene CA9; recombinant, obtained in house
Description: stopped-flow CO2 hydrase assay on hCA IX

[3] = target: T3, hCA XII (Homo sapiens, UniProt O43570)
T3 construct: gene CA12; recombinant, obtained in house
Description: stopped-flow CO2 hydrase assay on hCA XII

[4] = target: T4, hCA II (Homo sapiens, UniProt P00918); conditions: read-out: KI (μM) ^a / hCA I
T4 construct: gene CA2; recombinant, obtained in house
Description: stopped-flow CO2 hydrase assay on hCA II

[5] = pH […] ([…] Hepes), […] Na2SO4, […] min preincubation at room temperature

T3 sequence (O43570 30-289 limits assumed): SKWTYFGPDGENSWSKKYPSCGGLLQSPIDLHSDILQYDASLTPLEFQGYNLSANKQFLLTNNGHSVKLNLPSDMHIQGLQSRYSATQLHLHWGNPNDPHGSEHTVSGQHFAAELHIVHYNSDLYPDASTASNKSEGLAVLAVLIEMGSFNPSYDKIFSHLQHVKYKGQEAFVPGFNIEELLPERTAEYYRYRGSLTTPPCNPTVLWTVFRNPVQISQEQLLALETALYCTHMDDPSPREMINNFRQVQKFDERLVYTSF
T1 sequence (P00915 2-261): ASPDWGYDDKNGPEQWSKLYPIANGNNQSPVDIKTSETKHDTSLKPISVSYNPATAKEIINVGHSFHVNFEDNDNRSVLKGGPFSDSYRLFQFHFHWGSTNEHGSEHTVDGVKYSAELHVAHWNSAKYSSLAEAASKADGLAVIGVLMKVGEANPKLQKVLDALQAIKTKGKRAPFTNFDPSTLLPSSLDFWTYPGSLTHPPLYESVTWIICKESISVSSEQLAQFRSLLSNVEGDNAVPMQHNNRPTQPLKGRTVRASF

Compound | Ki [1] | Ki [2] | Ki [3] | Ki [4] | Ki [1, 5] | Ki [2, 5] | Ki [3, 5] | Ki [4, 5]
Cc1cccc(NC(=O)c2ccc(=O)oc2)c1 [compound 4, 2-Oxo-N-(m-tolyl)-2H-pyran-5-carboxamide] | > 100 µM | 0.174 µM | 0.09 µM | > 100 µM |  |  |  | 
CC(C)c1ccc(NC(=O)c2ccc(=O)oc2)cc1 [compound 5, N-(4-Isopropylphenyl)-2-oxo-2H-pyran-5-carboxamide] | > 100 µM | 0.273 µM | 0.068 µM | > 100 µM |  |  |  | 
O=C(Nc1ccc(Br)cc1)c1ccc(=O)oc1 [compound 9, N-(4-Bromophenyl)-2-oxo-2H-pyran-5-carboxamide] | > 100 µM | 0.082 µM | 0.089 µM | > 100 µM |  |  |  | 
O=C(Nc1ccccc1I)c1ccc(=O)oc1 [compound 10, N-(2-Iodophenyl)-2-oxo-2H-pyran-5-carboxamide] | > 100 µM | 0.281 µM | 0.081 µM | > 100 µM |  |  |  | 
O=C(NC1CCCCC1)c1ccc(=O)oc1 [compound 14, N-Cyclohexyl-2-oxo-2H-pyran-5-carboxamide] | > 100 µM | 0.098 µM | 0.086 µM | > 100 µM |  |  |  | 
COc1ccc(NC(=O)c2ccc(=O)oc2)cc1 [compound 6, N-(4-Methoxyphenyl)-2-oxo-2H-pyran-5-carboxamide] | > 100 µM | 3.1 µM | 0.7 µM | > 100 µM |  |  |  | 
O=C(Nc1cccc2ccccc12)c1ccc(=O)oc1 [compound 13, N-(Naphthalen-1-yl)-2-oxo-2H-pyran-5-carboxamide] | > 100 µM | 3.69 µM | 0.094 µM | > 100 µM |  |  |  | 
O=C(Nc1ccc(Cl)cc1)c1ccc(=O)oc1 [compound 8, N-(4-Chlorophenyl)-2-oxo-2H-pyran-5-carboxamide] | > 100 µM | 3.2 µM | 0.7 µM | > 100 µM |  |  |  | 
O=C(Nc1ccccc1Cc1ccccc1)c1ccc(=O)oc1 [compound 12, N-(2-Benzylphenyl)-2-oxo-2H-pyran-5-carboxamide] | > 100 µM | 0.146 µM | 0.08 µM | > 100 µM |  |  |  | 
O=C(Nc1ccccc1)c1ccc(=O)oc1 [compound 2, 2-Oxo-N-phenyl-2H-pyran-5-carboxamide] | > 100 µM | 3 µM | 0.7 µM | > 100 µM |  |  |  | 
COc1cccc(NC(=O)c2ccc(=O)oc2)c1 [compound 7, N-(3-Methoxyphenyl)-2-oxo-2H-pyran-5-carboxamide] | > 100 µM | 0.315 µM | 0.265 µM | > 100 µM |  |  |  | 
O=C(O)c1ccc(=O)oc1 [compound 1, coumalic acid] | > 100 µM | 0.073 µM | 0.083 µM | > 100 µM |  |  |  | 
O=C(Nc1ccc(-c2ccccc2)cc1)c1ccc(=O)oc1 [compound 11, N-([1,1′-Biphenyl]-4-yl)-2-oxo-2H-pyran-5-carboxamide] | > 100 µM | 0.083 µM | 0.076 µM | > 100 µM |  |  |  | 
N-(3-Morpholinopropyl)-2-oxo-2H-pyran-5-carboxamide [compound 15] |  |  |  |  | > 100 µM | 0.326 µM | 0.087 µM | > 100 µM
Cc1ccc(NC(=O)c2ccc(=O)oc2)cc1 [compound 3, 2-Oxo-N-(p-tolyl)-2H-pyran-5-carboxamide] | > 100 µM | 2.9 µM | 0.8 µM | > 100 µM |  |  |  | 
